Two compounds from patent publication US12251383B2, “Methods and compositions for KRAS inhibitors” (The Board of Regents of the University of Texas System, priority 2019, dated 2025) can be followed below.

As a reminder, the Kd is the concentration at which binding is half-saturated. Higher therefore signals lower affinity.

The target in one data set is GTPKRAS^WT (Homo sapiens, UniProt P01116). Description: Microscale thermophoresis (MST) binding, GTP-state (GNP-bound) KRAS WT. An excerpt: (§1) FIGS. 1A-1D show representative data for the predicted binding mode and measured affinity of disclosed compound 11 to KRAS. (FIG. 1A) Structure of the catalytic domain of KRAS used for the virtual screening. Lobe1 (residues 1-86) and lobe2 (residues 87-166) are highlighted in different colors, as well as switches 1 (residues 30-40) and 2 (residues 60-75). The location of the target allosteric pocket p1 is indicated. (FIG. 1B) Chemical structure of compound 11. (FIG. 1C) Predicted binding pose of compound 11, with the key residues that make polar or vdW contacts with the ligand labeled. (FIG. 1D) Microscale thermophoresis (MST) experiments indicating direct binding of compound 11 to KRAS, along with dissociation constants (KD) derived from the curves. Changes in fluorescence upon titration of […] KRAS with increasing concentration of compound are shown: KRAS^WT (red), KRAS^G12C (green), KRAS^G12D (purple) and KRAS^Q61M (blue), each bound to the non-hydrolyzable GTP analogue, guanylyl imidodiphosphate (GNP). The same experiments indicated no binding to GDP-bound KRAS^G12D and KRAS^WT as well as Rap1B, which was used as control. […]
GTPKRAS^WT, sequence (P01116 1-188 isoform P01116-2): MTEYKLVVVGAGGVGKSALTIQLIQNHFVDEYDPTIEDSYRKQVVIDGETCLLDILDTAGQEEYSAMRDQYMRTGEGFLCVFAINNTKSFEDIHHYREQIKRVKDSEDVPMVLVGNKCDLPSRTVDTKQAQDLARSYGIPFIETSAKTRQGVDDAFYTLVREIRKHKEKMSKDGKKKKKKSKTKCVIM
On the technique in general: Microscale thermophoresis detects binding through changes in fluorescence in a small temperature gradient.

Data set [1] deals with KRAS^G12D in the GTP state (Homo sapiens, UniProt P01116, G12D). Description: MST binding, GTP-state KRAS G12D.
KRAS^G12D in the GTP state, sequence (P01116 1-188 isoform P01116-2 G12D): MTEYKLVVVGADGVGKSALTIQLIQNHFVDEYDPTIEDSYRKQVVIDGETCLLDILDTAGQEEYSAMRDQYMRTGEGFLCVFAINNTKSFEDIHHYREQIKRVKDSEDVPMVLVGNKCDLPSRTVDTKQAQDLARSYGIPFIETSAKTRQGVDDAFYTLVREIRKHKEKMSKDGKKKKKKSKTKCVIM
Text: as §1

The target of data set [2] is KRAS^G12C in the GTP state (Homo sapiens, UniProt P01116, G12C). Description: MST binding, GTP-state KRAS G12C.
KRAS^G12C in the GTP state, sequence (P01116 1-188 isoform P01116-2 G12C): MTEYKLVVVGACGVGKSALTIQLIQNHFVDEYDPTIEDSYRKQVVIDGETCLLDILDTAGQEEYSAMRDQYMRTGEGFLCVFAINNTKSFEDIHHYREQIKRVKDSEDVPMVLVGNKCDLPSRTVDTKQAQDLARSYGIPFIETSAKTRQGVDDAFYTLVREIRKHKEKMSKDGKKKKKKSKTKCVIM
Text: as §1

Data set [3] deals with KRAS^Q61H in the GTP state (Homo sapiens, UniProt P01116, Q61H). Description: MST binding, GTP-state KRAS Q61H.
KRAS^Q61H in the GTP state, sequence (P01116 1-188 isoform P01116-2 Q61H): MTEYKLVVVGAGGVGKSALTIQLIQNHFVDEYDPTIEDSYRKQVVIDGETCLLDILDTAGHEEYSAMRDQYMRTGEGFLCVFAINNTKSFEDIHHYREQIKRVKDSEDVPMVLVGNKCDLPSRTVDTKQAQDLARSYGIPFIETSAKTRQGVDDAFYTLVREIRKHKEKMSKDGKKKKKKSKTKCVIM
In the next data set the target is Rap1B (Homo sapiens, UniProt P61224). Description: MST binding, control Rap1B. The following applies: control small GTPase.
Rap1B, sequence (P61224 whole entry, species assumed): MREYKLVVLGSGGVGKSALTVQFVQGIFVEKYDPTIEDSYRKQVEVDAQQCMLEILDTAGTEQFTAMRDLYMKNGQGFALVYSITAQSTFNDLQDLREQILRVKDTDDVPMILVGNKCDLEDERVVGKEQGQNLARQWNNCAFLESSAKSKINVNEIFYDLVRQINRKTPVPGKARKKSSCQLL
Text: as §1

In the next data set the test system is KRAS^G12V. Description: Cell signaling (Western) in BHK cells expressing KRAS G12V. The data set is classed as cell-based, hamster. On the procedure: Cell signaling. The inhibitory potential of compounds was tested in monoclonal Baby Hamster Kidney (BHK) cell lines stably expressing monomeric green fluorescence protein (mGFP)-tagged KRAS^G12D, K-Ras^G12V and HRAS^G12V. Cells were cultured in Dulbecco's Modified Eagle Medium (DMEM, Hyclone) supplemented with 10% v/v bovine calf serum and incubated with compound or vehicle (DMSO) for 3 h without serum. Cells were then harvested in lysis buffer (50 mM Tris (pH 7.5), 75 mM NaCl, 25 mM NaF, 5 mM MgCl2, 5 mM EGTA, 1 mM dithiothreitol, 100 μM NaVO4, 1% Nonidet P40 plus protease inhibitors) and subjected to Western analysis controlling protein loading by BCA (bicinchoninic acid) assay. Lysates were resolved with Bio-Rad polyacrylamide TGX 10% gel, transferred to polyvinylidene fluoride (PVDF) membrane and immunoblotted using pan-AKT (2920S), GFP (2956S), pAKT^S473 (4060L), p-cRaf^S338 (9427S), p-ERK^T202/Y204 (4370L), ERK1/2 (4695S) or β-actin antibodies (Cell Signaling Technology). IC50 values were calculated with Prism 4-parameter fit.

The test system of data set [4] is H1975 (KRAS^WT) lung cancer cells. Description: Cell proliferation (CyQuant), H1975. The data set is classed as cell-based. The following applies: 72 h. On the procedure: (§2) Cell proliferation. Potential effect of the ligands on cancer cell proliferation was tested in three lung cancer cells: SKLU-1, H1975 and H522. Cells were plated at ˜1,000 cell per well in a 96-well plate and maintained in full serum media with or without compound at 37° C. for 72 h changing the media with the compound every 24 h. Media with compound was prepared by serial dilution at concentrations indicated. Then cells were washed with PBS and frozen at −80° C. for a minimum of 24 h. Plates were thawed and CyQuant™ dye (in lysis buffer provided in the CyQuant™ cell proliferation assay kit, Invitrogen™) was added, and after a five-minute incubation, fluorescence (excitation: 480 nm emission: 520 nm) was measured with a Tecan Infinite M200 plate reader.

In another data set the test system is lung cancer cells. The experiment in a line: Cell proliferation (CyQuant), lung cancer cells overall. The data set is classed as cell-based.
Text: (FIG. 5A) Chemical structure of compounds 12, an analogue of 11 lacking the terminal methyl alcohol functional group. (FIG. 5B) Predicted binding pose of compound 12. (FIG. 5C) p-ERK and p-cRaf levels in BHK cells expressing KRAS^G12D treated with indicated concentrations of compound 12 or vehicle. (FIG. 5D) Proliferation profile of lung cancer cells upon treatment with increasing concentration of compound 12, monitored by a CyQuant assay. Data are averages over three independent experiments and error bars represent standard error. (FIG. 5E) GFP fluorescence lifetime from FLIM-FRET using cells expressing GFP-KRAS^G12D alone or together with RFP-cRaf, with or without treatment with 2 μM compound 12.
as §2

A further data set has as its system KRAS. The experiment in a line: MST affinity for KRAS (G12D and other KRAS mutants). The data set is classed as binding, human. The following applies: MST KD.
Data set [5] in a line: Solubility in DMSO and common solvents. The data set is classed as physicochemical. The following applies: DMSO.

Entries after “also recorded” stand apart in the source; their conditions may differ.

With `Cc1nn2c(N3CCN(CCO)CC3)cc(-c3ccccc3)nc2c1-c1ccccc1` [Compound 11, 2-[4-(8-methyl-3,9-diphenyl-2,6,7-triazabicyclo[4.3.0]nona-2,4,7,9-tetraen-5-yl)piperazin-1-yl]ethanol], the equilibrium dissociation constant (Kd) was roughly 300 nM on GTPKRAS^WT, 400 to 700 nM in data set [1], 400 to 700 nM in [2] and 400 to 700 nM in [3]. Moreover, the “binding (in words)” value on Rap1B is on record as “no binding”. Also, the “effect on p-ERK levels” value in the data set on KRAS^G12V is on record as “dose-dependently reduced; also recorded: dose-dependently decreases”. In addition, the “effect on p-cRaf levels” value with KRAS^G12V is given as “dose-dependently reduced; also recorded: dose-dependently decreases”. Besides, the sensitivity of proliferation entry in data set [4] is “sensitive”. Also, the “selectivity between KRAS mutant and KRAS^WT lung cancer cells” value in the data set with lung cancer cells is on record as “no significant difference”.

Regarding `Cc1cc(N2CCN(CCO)CC2)n2nc(C)c(-c3ccccc3)c2n1` [Compound 13], the “weaker affinity for KRAS than compound 11” value in the data set with KRAS was 6.5-7.1 fold. In addition, the solubility result in data set [5] is listed as “readily soluble”.
